Reference: patent publication WO2018160794A1, “Epha2-targeted docetaxel -generating liposomes in combination with an agent that impedes regulatory t cell activity for treating cancer” (dated 2018)

Tests used:
[1] = test system: EMT-6; test: In vivo tumor growth inhibition in EMT-6 model versus dose-dense and standard docetaxel (Example 6); parameters: species or system mouse; settings: EMT-6, Example 6; docetaxel 3.33 mg/kg three times a week (DTX-DD); Figure 7A
[2] = test system: MC38; test: In vivo antitumor efficacy in MC38 colon cancer model (Example 8); parameters: species or system mouse; settings: MC38, C57BL6/J mice; days after treatment initiation; Figure 9B
[3] = test system: EMT-6; test: In vivo antitumor efficacy in EMT-6 model versus free docetaxel (Example 3); parameters: species or system mouse; settings: EMT-6, Example 3
[4] = test system: T cells in EMT-6 tumors; test: FACS of immune cell infiltrate in EMT-6 tumors versus dose-dense and standard docetaxel (Example 6); type: in vivo, mouse; settings: EMT-6, Example 6

CC(=O)O[C@@]12CO[C@@H]1C[C@H](O)[C@@]1(C)C(=O)[C@H](O)C3=C(C)[C@@H](OC(=O)[C@H](O)[C@@H](NC(=O)OC(C)(C)C)c4ccccc4)C[C@@](O)([C@@H](OC(=O)c4ccccc4)[C@H]21)C3(C)C [docetaxel]
tumor growth inhibition (in words) [1]: improved growth inhibition relative to DTX-MTD, but it did not recapitulate the inhibition observed in 46scFv-ILs-DTXp3 treatment | median survival [2]: 16 days | tumor regression [3]: no tumor regression | growth arrest ([3]; monotherapy, PD-1 10 mg/kg twice weekly, docetaxel 10 mg/kg q1w): minimal growth arrest | effect on intratumoral immune cell populations ([4]; dose-dense docetaxel (DTX-DD), 3.33 mg/kg three times a week): Neither the dose-dense (DTX-DD) nor the weekly (DTX-MTD) docetaxel treatment groups were observed to affect these intratumoral immune cell populations | effect on intratumoral immune cell populations ([4]; weekly docetaxel (DTX-MTD), 10 mg/kg once a week): Neither the dose-dense (DTX-DD) nor the weekly (DTX-MTD) docetaxel treatment groups were observed to affect these intratumoral immune cell populations
